From US20100113472A1, “COMPOUNDS FOR THE TREATMENT OF OSTEOPOROSIS AND CANCERS” (ChemoCentryx, Inc., priority 2008, published 2010)

Experiments:
[1] = test system: Rat Model of Collagen Induced Arthritis; assay: Rat model of collagen induced arthritis; assay type: in vivo; conditions: female Lewis rats; 150 mg/kg oral, twice daily, day 9 to day 17
Method: A 17 day developing type II collagen arthritis study was conducted to evaluate the effects of a compound of interest on arthritis induced clinical ankle swelling. Rat collagen arthritis is an experimental model of polyarthritis that has been widely used for preclinical testing of numerous anti-arthritic agents (see Trentham, et al., J. Exp. Med. 146(3):857-868 (1977), Bendele, et al., Toxicologic Pathol. 27:134-142 (1999), Bendele, et al., Arthritis Rheum. 42:498-506 (1999)). The hallmarks of this model are reliable onset and progression of robust, easily measurable polyarticular inflammation, marked cartilage destruction in association with pannus formation and mild to moderate bone resorption and periosteal bone proliferation.
To measure the efficacy of CCR1 antagonists on the development of collagen induced arthritis in rats, compound 1.016 was evaluated in groups of 20 female Lewis rats. Animals were injected with 300 μl of Freund's Incomplete Adjuvant (Difco, Detroit, Mich.) containing 2 mg/ml bovine type II collagen (Elastin Products, Owensville, Mo.) at the base of the tail and 2 sites on the hack on days 0 and 6. Dosing by oral route (150 mg/kg; oral, twice daily) was initiated on day 9 of established disease (day 0 of arthritis) and continued through day 17 (day 7 of arthritis). On arthritis day 7, animals were euthanized for tissue collection. Hind paws were transected at the level of the medial and lateral malleolus, weighed and placed in formalin for microscopy. Osteoclasts were counted in 5, 400× magnification fields in ankle and knee of each joint and the mean number for the joint determined. Collagen arthritic ankles are also given scores of 0-5 (0 indicating normal and 5 indicating severe) for bone resorption according to established criteria.

[2] = test system: Rabbit Model of Destructive Joint Inflammation; assay: Rabbit model of destructive joint inflammation (rabbit LPS study); assay type: in vivo; conditions: oral, 2 h before and 4 h after intra-articular LPS (10 ng); lavage 16 h after LPS
Method: A rabbit LPS study was conducted essentially as described in Podolin, et al. J. Immunol. 169(11):6435-6444 (2002). Female New Zealand rabbits (approximately 2 kilograms) were treated intra-articularly in both knees with LPS (10 ng). The compound of interest, for example 1.016, (formulated in 1% methocel) or vehicle (1% methocel) was dosed orally at a 5 ml/kg dose volume at two times (2 hours before the intra-articular LPS injection and 4 hours after the intra-articular LPS injection). Sixteen hours after the LPS injection, knees were lavaged and cells counts were performed. Beneficial effects of treatment were determined by reduction in the number of inflammatory cells recruited to the inflamed synovial fluid of the knee joints.

[3] = pharmacokinetic tests conducted in animals; assay type: in vivo; conditions: compared with related compounds of U.S. Publication No. 2007/0010524A1
[4] = test system: human peripheral blood mononuclear cells (PBMC) differentiating into osteoclasts; assay: Inhibition of formation of osteoclasts in vitro; assay type: cell-based; conditions: Osteoclast, 504 h, 100 nM, M-CSF and RANKL 50 ng/ml each, day 21, over the untreated control, read-out: inhibition of osteoclast formation (TRAP+ multinuclear cells)
Method: PBMC were prepared by layering human whole blood over a Ficoll ague plus (Amersham) gradient and centrifuging 45 minutes at 400 g. The interface of white cells is removed and washed twice with PBS, and placed in culture in RPMI with 10% FBS.
CCR1 is expressed on both osteoclast precursor cells and mature osteoclasts and modulates osteoclast formation and maturation. To evaluate the ability of the 1.016 compound to block osteoclast formation in vitro, human peripheral blood mononuclear cells (PBMC) were cultured in the presence of M-CSF (50 ng/ml) and RANKL (50 ng/ml), which induces the monocyte subpopulation to differentiate into giant multinucleated osteoclasts over 21 days. Compound 1.016 was added at a concentration of 100 nM to the culture media on day one and the compound/medium was changed twice weekly. On day 21, cells were fixed and stained for tartrate-resistant acid phosphatase (TRAP) (acid phosphatase leukocyte staining kit, Sigma, Mo.) and TRAP^+ multinuclear (3 or more nuclei) cells were quantified by light microscopy. Osteoclast formation in the presence of 1.016 was inhibited by ˜40% over the untreated control.

For COc1cc(N2CCN(C(=O)Cn3nc(-c4ncc[nH]4)c4cccnc43)CC2)ccc1Cl [compound 1.016, 1-[4-(4-Chloro-3-methoxy-phenyl)-piperazin-1-yl]-2-[3-(1H-imidazol-2-yl)-pyrazolo[3,4-b]pyridin-1-yl]-ethanone], the “bone resorption (score 0-5)” value [1] was “reduction in bone resorption”, the “clinical changes associated with established type II collagen arthritis” value [1] was “effectively inhibited” and the “joint swelling assessed by caliper measurements” value [1] was “reduction in joint swelling”. The “osteoclasts in ankle and knee (histopathology)” value [1] was “reduction of osteoclasts”, the “recruited inflammatory cells in synovial fluid of the knee joints” value [2] was “significant reduction” and the AUC [3] was “increased”. The Cmax [3] was “increased”, the oral bioavailability [3] was “improved” and the inhibition at 0.1 µM [4] was roughly 40%.
